In patent US12279855B2, “Highly-timed resolved myocardial blood-oxygen-level-dependent magnetic resonance imaging” (Cedars-Sinai Medical Center, priority 2018, dated 2025):
Entries after “also recorded” stand apart in the source; their conditions may differ. Like-named read-outs stand apart in the source and are kept apart here.

Columns and labels:
[1] = extended vasodilatory state, cited from earlier work
[2] = system: Anesthetized dogs (intact; with chronic myocardial infarction), myocardium; experiment: Beat-to-beat cardiac BOLD MRI at 3T before and after regadenoson injection; assay type: in vivo, dog
Procedure: FIG. 2A-FIG. 2F depicts in accordance with various embodiments of the invention, dynamics of BOLD response at rest and under the influence of regadenoson. BOLD response was relatively flat (fluctuated within +/−5%) throughout the measurement at rest (FIG. 2A), but peaks at 2-3 minutes after regadenoson injection to 10-15% and then plateaus after 4 minutes of injection (FIG. 2B). […] BOLD response was relatively flat in Remote and Affected territories at rest (FIG. 2D). However, under the influence of regadenoson (FIG. 2E), the BOLD response remained flat in Affected myocardium, while there was a delayed but rising BOLD response in Remote myocardium peaking at approximately 5 minutes was observed (FIG. 2E). The corresponding LGE image (with evidence of infarction) of the slice and where BOLD responses were measured are shown in FIG. 2F.
Methods. The proposed cardiac BOLD MRI approach was developed based on a LRT formalism (acquisition and reconstruction) that was previously used for ungated cardiac T1 mapping. It is composed of 3 parts: (i) adiabatic T2 preparation that is repeated at a fixed interval to ensure consistent T2 weighting; (ii) repeat acquisition of a set of central k-space lines with GRE readout every other TR to serve as respiratory and cardiac navigators for reconstruction; and (iii) interleaving of a set of golden-ratio radial GRE readout lines with the navigator lines serving as LRT training data. In brief, we modeled a high-dimensional cardiac image space (cardiac motion (Uc), respiratory motion (Ur), T1 recovery time (Ut), and time after excitation (Ut)) as a low-rank tensor that is partially separable. The complete tensors of all subspaces were recovered from the frequently sampled navigator signal using LRT completion. Subsequently cardiac and respiratory phased-resolved, beat-to-beat cardiac BOLD images were reconstructed. Anesthetized dogs (intact, n=2; and with chronic myocardial infarction, n=2) underwent continuous acquisition in a 3T MRI system (Siemens, Verio) that began 1-minute prior to regadenoson injection ([…]; duration of injection=30 sec) and ended 6 minutes after regadenoson injection. The data acquisition and reconstruction schemes are illustrated in FIG. 1. Sequence parameters were: scan time: 6 mins, delay between T2prep=800 ms; TE (T2prep time)=60 ms; GRE readout (TE/TR=1.4/3.3 ms, flip angle=12°, FOV=270×270 mm2, in-plane resolution: 1.7×1.7 mm2, 1 slice of thickness: 6 mm).
Results. […] LGE images show the region where the BOLD responses were measured. […] In animals with chronic MI (FIG. 2D, FIG. 2E and FIG. 2F), rest BOLD Response was also relatively stable in the infarcted and remote myocardium. However, following regadenoson injection, there was no response in the affected (infarcted) myocardium; but in the remote myocardium, a noticeably delayed hyperemic BOLD Response was observed (compared to intact animals), which peaked ˜5 minutes after regadenoson injection and plateaued to above 25%.

[3] = intact animal, healthy myocardium, regadenoson 2.5 mg/kg over 30 sec

Row | Compound | terminal half-life ([1]; literature references) | terminal half-life ([1]; range printed in mixed units (min to hours), literature reference) | BOLD response in Affected (infarcted) myocardium ([2]; animal with chronic MI, affected territory, regadenoson 2.5 mg/kg over 30 sec) | plateau of BOLD Response in Remote myocardium ([2]; animal with chronic MI, remote territory, regadenoson 2.5 mg/kg over 30 sec) | plateau of normalized BOLD Response [2, 3] | time after injection at which BOLD response plateaus [2, 3] | time over which BOLD response rises / peaks after regadenoson injection [2, 3] | BOLD response at peak after regadenoson injection ([2]; intact animal, healthy myocardium, regadenoson injection 2.5 mg/kg over 30 sec, normalized BOLD response)
1 | Nc1nc(N/N=C/C2CCCCC2)nc2c1ncn2[C@@H]1O[C@H](CO)[C@@H](O)[C@H]1O [binodenoson] | 10 to 120 min | – | – | – | – | – | – | –
2 | OCCN(CCO)c1nc(N2CCCCC2)c2nc(N(CCO)CCO)nc(N3CCCCC3)c2n1 [dipyridamole] | – | 40 to 600 min | – | – | – | – | – | –
3 | CNC(=O)c1cnn(-c2nc(N)c3ncn([C@@H]4O[C@H](CO)[C@@H](O)[C@H]4O)c3n2)c1 [regadenoson] | 33 to 108 min | – | remained flat; also recorded: no response | above 25% | more than 10% | 4 min | 2 to 3 min | 10-15%
